The test system of the series is CCRIS mutagenicity, Ames/micronucleus/aberration tests. Description: CCRIS mutagenicity studies.
Setting [1] is: Test System: AMES SALMONELLA TYPHIMURIUM, Strain/Indicator: TA98, Metabolic Activation: NONE, Method: STANDARD PLATE.
The mark [2] stands for this setting: Test System: AMES SALMONELLA TYPHIMURIUM, Strain/Indicator: TA98, Metabolic Activation: RAT, LIVER, S-9, AROCLOR 1254, Method: STANDARD PLATE.
Setting [3] is: Test System: AMES SALMONELLA TYPHIMURIUM, Strain/Indicator: TA100, Metabolic Activation: NONE, Method: STANDARD PLATE.
[4] abbreviates: Test System: AMES SALMONELLA TYPHIMURIUM, Strain/Indicator: TA100, Metabolic Activation: RAT, LIVER, S-9, AROCLOR 1254, Method: STANDARD PLATE.
Where [5] appears, read: Test System: AMES SALMONELLA TYPHIMURIUM, Strain/Indicator: TA98, Metabolic Activation: NONE, Method: PREINCUBATION
Where [6] appears, read: Test System: AMES SALMONELLA TYPHIMURIUM, Strain/Indicator: TA100, Metabolic Activation: NONE, Method: PREINCUBATION

This is an account of results in PubChem BioAssay AID1259407 (Chemical Carcinogenesis Research Information System (CCRIS), 2018).

SMILES strings stand for the structures. Activity calls are given as the source filed them. The rule behind the calls is not given here.

In the case of `c1ccc(-c2ccc(-c3ccccc3)cc2)cc1`, the mutagenic call is “inactive; negative” (Test System: AMES SALMONELLA TYPHIMURIUM, Strain/Indicator: TA98, Metabolic Activation: HAMSTER, LIVER, S-9, AROCLOR 1254, Method: STANDARD PLATE); “inactive; negative” under setting [1]; “inactive; negative” under setting [2]; “inactive; negative” (Test System: AMES SALMONELLA TYPHIMURIUM, Strain/Indicator: TA100, Metabolic Activation: HAMSTER, LIVER, S-9, AROCLOR 1254, Method: STANDARD PLATE); “inactive; negative” under setting [3]; “inactive; negative” under setting [4]. In addition, the mutagenic call is “inactive; negative” (Test System: AMES SALMONELLA TYPHIMURIUM, Strain/Indicator: TA1535, Metabolic Activation: HAMSTER, LIVER, S-9, AROCLOR 1254, Method: STANDARD PLATE); “inactive; negative” (Test System: AMES SALMONELLA TYPHIMURIUM, Strain/Indicator: TA1535, Metabolic Activation: NONE, Method: STANDARD PLATE); “inactive; negative” (Test System: AMES SALMONELLA TYPHIMURIUM, Strain/Indicator: TA1535, Metabolic Activation: RAT, LIVER, S-9, AROCLOR 1254, Method: STANDARD PLATE); “inactive; negative” (Test System: AMES SALMONELLA TYPHIMURIUM, Strain/Indicator: TA1537, Metabolic Activation: HAMSTER, LIVER, S-9, AROCLOR 1254, Method: STANDARD PLATE); “inactive; negative” (Test System: AMES SALMONELLA TYPHIMURIUM, Strain/Indicator: TA1537, Metabolic Activation: NONE, Method: STANDARD PLATE); “inactive; negative” (Test System: AMES SALMONELLA TYPHIMURIUM, Strain/Indicator: TA1537, Metabolic Activation: RAT, LIVER, S-9, AROCLOR 1254, Method: STANDARD PLATE). Moreover, the mutagenic call by setting is: (Test System: AMES SALMONELLA TYPHIMURIUM, Strain/Indicator: TA1538, Metabolic Activation: HAMSTER, LIVER, S-9, AROCLOR 1254, Method: STANDARD PLATE) “inactive; negative”; (Test System: AMES SALMONELLA TYPHIMURIUM, Strain/Indicator: TA1538, Metabolic Activation: NONE, Method: STANDARD PLATE) “inactive; negative”; (Test System: AMES SALMONELLA TYPHIMURIUM, Strain/Indicator: TA1538, Metabolic Activation: RAT, LIVER, S-9, AROCLOR 1254, Method: STANDARD PLATE) “inactive; negative”; (Test System: MOUSE LYMPHOMA, Strain/Indicator: L5178Y (TK+/TK-), Metabolic Activation: NONE, Method: SUSPENSION/PLATE) “inactive; negative. reevaluation of results: negative”; (Test System: MOUSE LYMPHOMA, Strain/Indicator: L5178Y (TK+/TK-), Metabolic Activation: RAT, LIVER, S-9, AROCLOR 1254, Method: SUSPENSION/PLATE) “active; positive. reevaluation of results: equivocal”.

In the case of `COc1c(O)cc(Cl)cc1Cl`, the mutagenic call (Test System: CHINESE HAMSTER V-79, Strain/Indicator: V-79/6-THIOGUANINE, Metabolic Activation: NONE, Method: STANDARD PLATE) was “inactive; negative”.

On to `ClC(Cl)c1ccccc1`, for which the mutagenic call reads like this: (Test System: AMES SALMONELLA TYPHIMURIUM, Strain/Indicator: TA98, Metabolic Activation: HAMSTER, LIVER, S-9, AROCLOR 1254 (30%), Method: PREINCUBATION) “inactive; negative”; under setting [5], “active; positive”; (Test System: AMES SALMONELLA TYPHIMURIUM, Strain/Indicator: TA98, Metabolic Activation: RAT, LIVER, S-9, AROCLOR 1254 (30%), Method: PREINCUBATION) “active; positive”; (Test System: AMES SALMONELLA TYPHIMURIUM, Strain/Indicator: TA100, Metabolic Activation: HAMSTER, LIVER, S-9, AROCLOR 1254 (30%), Method: PREINCUBATION) “active; positive”; under setting [6], “active; positive”; (Test System: AMES SALMONELLA TYPHIMURIUM, Strain/Indicator: TA100, Metabolic Activation: RAT, LIVER, S-9, AROCLOR 1254 (30%), Method: PREINCUBATION) “active; positive”. The mutagenic call (Test System: AMES SALMONELLA TYPHIMURIUM, Strain/Indicator: TA100, Metabolic Activation: RAT, LIVER, S-9, AROCLOR 1254, Method: PREINCUBATION) was “active; positive”.

In the case of `CC(C)S(=O)(=O)Cl`, the mutagenic call runs as follows: under setting [5], “inactive; negative”; (Test System: AMES SALMONELLA TYPHIMURIUM, Strain/Indicator: TA98, Metabolic Activation: RAT, LIVER, S-9, PHENOBARBITAL, Method: PREINCUBATION) “active; positive”; under setting [6], “active; positive”; (Test System: AMES SALMONELLA TYPHIMURIUM, Strain/Indicator: TA100, Metabolic Activation: RAT, LIVER, S-9, PHENOBARBITAL, Method: PREINCUBATION) “active; positive”.

For the compound `NC(=O)Nc1cccc2cccnc12`, the mutagenic call (Test System: AMES SALMONELLA TYPHIMURIUM, Strain/Indicator: TA100, Metabolic Activation: S-9, Method: PREINCUBATION) was “inactive; negative”.

`O=[N+]([O-])c1ccc(F)c([N+](=O)[O-])c1`: the mutagenic call is, setting by setting: (Test System: AMES SALMONELLA TYPHIMURIUM, Strain/Indicator: TA98(1,8-DNP6), Metabolic Activation: NONE, Method: PREINCUBATION) “active; positive”; (Test System: AMES SALMONELLA TYPHIMURIUM, Strain/Indicator: TA98(NR), Metabolic Activation: NONE, Method: PREINCUBATION) “active; positive”; under setting [5], “active; positive”; (Test System: AMES SALMONELLA TYPHIMURIUM, Strain/Indicator: TA98, Metabolic Activation: RAT, LIVER, S-9, KANECHLOR 500, Method: PREINCUBATION) “active; positive”; (Test System: AMES SALMONELLA TYPHIMURIUM, Strain/Indicator: TA100(NR), Metabolic Activation: NONE, Method: PREINCUBATION) “active; positive”; (Test System: AMES SALMONELLA TYPHIMURIUM, Strain/Indicator: TA100/GSH-, Metabolic Activation: NONE, Method: PREINCUBATION) “active; positive”. Moreover, the mutagenic call was “active; positive” under setting [6] and “active; positive” (Test System: AMES SALMONELLA TYPHIMURIUM, Strain/Indicator: TA100, Metabolic Activation: RAT, LIVER, S-9, KANECHLOR 500, Method: PREINCUBATION).

Consider `CN(N=O)C(C)(C)C`, for which the mutagenic call (Test System: CHINESE HAMSTER V-79, Strain/Indicator: V-79/OUABAIN, Metabolic Activation: HAMSTER, HEPATOCYTES, Method: CELL-MEDIATED) was “inactive; negative”.

As for `O=C(CO)N(O)c1ccc(Cl)cc1`, the mutagenic call by setting is: under setting [1], “inactive; negative”; under setting [2], “inactive; negative”; under setting [3], “inactive; negative”; under setting [4], “inactive; negative”.

`CCOC(=O)Nc1cccc(OC(=O)Nc2ccccc2)c1`: the mutagenic call was “inactive; negative” (Test System: Ames Salmonella typhimurium, Strain/Indicator: TA98, Metabolic Activation: None); “inactive; negative” (Test System: Ames Salmonella typhimurium, Strain/Indicator: TA98, Metabolic Activation: Rat, Liver, S-9); “inactive; negative” (Test System: Ames Salmonella typhimurium, Strain/Indicator: TA100, Metabolic Activation: None); “inactive; negative” (Test System: Ames Salmonella typhimurium, Strain/Indicator: TA100, Metabolic Activation: Rat, Liver, S-9); “inactive; negative” (Test System: Ames Salmonella typhimurium, Strain/Indicator: TA1535, Metabolic Activation: None); “inactive; negative” (Test System: Ames Salmonella typhimurium, Strain/Indicator: TA1535, Metabolic Activation: Rat, Liver, S-9). For the same compound, the mutagenic call by setting is: (Test System: Ames Salmonella typhimurium, Strain/Indicator: TA1537, Metabolic Activation: None) “inactive; negative”; (Test System: Ames Salmonella typhimurium, Strain/Indicator: TA1537, Metabolic Activation: Rat, Liver, S-9) “inactive; negative”; (Test System: E. coli, Strain/Indicator: WP2, Metabolic Activation: None, Method: Not reported by DPR) “inactive; negative”; (Test System: E. coli, Strain/Indicator: WP2, Metabolic Activation: Rat, Liver, S-9, Method: Not reported by DPR) “inactive; negative”.
